Legend:
Format in all cases: cell-based
[1] = system: MCF 7; test: Drug sensitization test (MTT); details: 72 hours
Excerpt: (§1) MCF7 Flavo-resistant strain and A549 cisplatin-resistant strain (A549/cis) were used as the experimental cell line with high ABCG2 expression, and the corresponding non-resistant cells MCF7 and A549 with relatively low ABCG2 expression were used as control cell lines in the drug sensitization test. FTC is a specific inhibitor of ABCG2, so the cell group added with FTC was used as a positive control group; the cell group added with a corresponding volume of DMEM high glucose medium or RPMI-1640 medium was used as a negative control group. […] The ABCG2-PKU1, ABCG2-PKU1-1 and ABCG2-PKU2 antibodies prepared in Example 3, as well as mitoxantrone (MTX) and FTC were added. After 72 hours, MTT test was carried out and the absorbance was measured. […] The ratio of the IC50 of the drug-resistant cells to the IC50 of the original cells was calculated, which was the relative drug resistance. Breast cancer cell MCF7 and Flavopiridol (Flavo)-resistant strain MCF7/Flavo cells, lung cancer A549 cells and cisplatin (Cis)-resistant strain A549/Cis cells were divided into 11 groups in the growth inhibition analysis: […]

[2] = system: A549/cis (Over-expressing ABCG2); test: Drug sensitization test (MTT); details: 72 hours
Excerpt: as §1

[3] = system: MCF 7/Flavo (Over-expressing ABCG2); test: Drug sensitization test (MTT); details: 72 hours
Excerpt: as §1

[4] = system: A549; test: Drug sensitization test (MTT); details: 72 hours
Excerpt: as §1

[5] = system: MCF7, MCF7/ADM, MCF7/FLV1000, MCF7/Mitoxantrone, A549, A549/cis, L02 and L02/Oct4 cells; test: Tumor cell growth inhibition analysis; details: agent alone; d1-d6 (FIG. 8)
Description: (1) Tumor cell MCF7 and the drug-resistant strains MCF7/ADM, MCF7/FLV1000, MCF7/Mitoxantrone obtained and identified in Example 4, A549 and A549/cis, L02 and L02/Oct4 cells were seeded in a 96-well plate, 3000 cells/90 μl/well, 6 replicate wells, incubated at 37° C. overnight.
(2) According to the following Tables 6-1 and 6-2, mitoxantrone, commercial ABCG2 antibody (BXP-21) and the three ABCG2 antibodies ABCG2-PKU1, ABCG2-PKU1-1 and ABCG2-PKU2 obtained in Example 3 were added to the plate. The plate was then incubated in a, 5% CO2 incubator at 37° C. 10 μl of DMSO was added to the well at d1, d2, d3, d4, d5, and d6, and the absorbance was measured using an ELISA instrument after 2 hours.
(3) Inhibitory rate calculation: OD value of drug-treatment—blank OD value/OD value without drug-treatment—blank OD value, a growth inhibition curve was plotted.

Compound | Relative Drug Resistance ([1]; mitoxantrone alone) | Relative Drug Resistance ([2]; mitoxantrone alone) | Relative Drug Resistance ([3]; mitoxantrone alone) | Relative Drug Resistance ([4]; mitoxantrone alone) | inhibition of tumor cell growth [5] | Relative Drug Resistance ([1]; mitoxantrone + agent at 5 μM) | Relative Drug Resistance ([2]; mitoxantrone + agent at 5 μM) | Relative Drug Resistance ([3]; mitoxantrone + agent at 5 μM) | Relative Drug Resistance ([4]; mitoxantrone + agent at 5 μM)
O=C1c2c(O)ccc(O)c2C(=O)c2c(NCCNCCO)ccc(NCCNCCO)c21 [Mitoxantrone, mitoxantrone] | 1.00 | 1.00 | 1.00 | 1.00 | could inhibit the growth |  |  |  | 
COc1ccc2c3c([nH]c2c1)[C@H](C=C(C)C)N1C(=O)[C@@H]2CCCN2C(=O)[C@@H]1C3 [FTC] |  |  |  |  |  | 1.03 | 0.92 | 0.77 | 1.13
